Experimental data: patent US20250129430A1, “HIGH ATP-AFFINITY PROTEIN AS THERAPEUTIC TARGET FOR INTRACTABLE CANCER MOLECULAR SUBTYPES AND INHIBITOR THEREOF” (VeraVerse Co., Ltd., priority 2021, published 2025)

Legend:
Format in all cases: cell-based, human
[1] = tested on: AGS; experiment: Cell viability drug screen, 12-point dose-response AUC; details: AGS cells; 72 hours; 12-point dose-response
Outline: (§1)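 Dose-response AUC reflects 72 h drug exposure of gastric cancer cells in a 12-point, half-log format, with viability read by luminescence and normalized to DMSO (0.5%).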

[2] = tested on: Hs746T; experiment: as above; details: Hs746T cells; 72 hours; 12-point dose-response
Outline: (§2)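 AUC comes from 12-point half-log dose–response curves, normalized to DMSO-treated cells and integrated trapezoidally, repeats averaged. Luminescent viability read after 72 h compound exposure at 37 °C; cells plated 5×10^3 per well 24 h before dosing.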

[3] = tested on: KATO3; experiment: as above; details: KATO3 cells; 72 hours; 12-point dose-response
Outline: as §2

[4] = tested on: MKN1; experiment: as above; details: MKN1 cells; 72 hours; 12-point dose-response
Outline: as §2

[5] = tested on: MKN28; experiment: as above; details: MKN28 cells; 72 hours; 12-point dose-response
Outline: as §2

[6] = tested on: MKN45; experiment: as above; details: MKN45 cells; 72 hours; 12-point dose-response
Outline: as §1

[7] = tested on: MKN74; experiment: as above; details: MKN74 cells; 72 hours; 12-point dose-response
Outline: as §1

[8] = tested on: NCC19; experiment: as above; details: NCC19 cells; 72 hours; 12-point dose-response
Outline: as §2

[9] = tested on: NCC20; experiment: as above; details: NCC20 cells; 72 hours; 12-point dose-response
Outline: as §2

[10] = tested on: NCC24; experiment: as above; details: NCC24 cells; 72 hours; 12-point dose-response
Outline: as §2

[11] = tested on: NCC59; experiment: as above; details: NCC59 cells; 72 hours; 12-point dose-response
Outline: as §2

[12] = tested on: NCI_N87; experiment: as above; details: NCI_N87 cells; 72 hours; 12-point dose-response
Outline: as §2

[13] = tested on: OCUM1; experiment: as above; details: OCUM1 cells; 72 hours; 12-point dose-response
Outline: as §2

[14] = tested on: SK4; experiment: as above; details: SK4 cells; 72 hours; 12-point dose-response
Outline: as §2

[15] = tested on: SNU16; experiment: as above; details: SNU16 cells; 72 hours; 12-point dose-response
Outline: as §2

[16] = tested on: SNU1750; experiment: as above; details: SNU1750 cells; 72 hours; 12-point dose-response
Outline: as §2

[17] = tested on: SNU1967; experiment: as above; details: SNU1967 cells; 72 hours; 12-point dose-response
Outline: as §2

[18] = tested on: SNU1; experiment: as above; details: SNU1 cells; 72 hours; 12-point dose-response
Outline: as §2

[19] = tested on: SNU216; experiment: as above; details: SNU216 cells; 72 hours; 12-point dose-response
Outline: as §1

[20] = tested on: SNU484; experiment: as above; details: SNU484 cells; 72 hours; 12-point dose-response
Outline: as §2

[21] = tested on: SNU601; experiment: as above; details: SNU601 cells; 72 hours; 12-point dose-response
Outline: as §2

[22] = tested on: SNU620; experiment: as above; details: SNU620 cells; 72 hours; 12-point dose-response
Outline: as §2

[23] = tested on: SNU638; experiment: as above; details: SNU638 cells; 72 hours; 12-point dose-response
Outline: as §2

[24] = tested on: SNU668; experiment: as above; details: SNU668 cells; 72 hours; 12-point dose-response
Outline: as §2

[25] = tested on: SNU719; experiment: as above; details: SNU719 cells; 72 hours; 12-point dose-response
Outline: as §1

[26] = tested on: YCC11; experiment: as above; details: YCC11 cells; 72 hours; 12-point dose-response
Outline: as §2

[27] = tested on: YCC2; experiment: as above; details: YCC2 cells; 72 hours; 12-point dose-response
Outline: as §2

[28] = tested on: YCC3; experiment: as above; details: YCC3 cells; 72 hours; 12-point dose-response
Outline: as §2

[29] = tested on: FU97; experiment: as above; details: FU97 cells; 72 hours; 12-point dose-response
Outline: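 Trapezoidal AUC of a 12-point, DMSO-normalized dose-response curve. Luminescent viability was measured after 72 h of exposure at 37° C to half-log serial dilutions (0.5% DMSO control), dosed 24 h after plating FU97 cells at 5×10^3 per well.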

[30] = tested on: SEM-type gastric cancer cell line; experiment: Cell viability drug screen, AUC summary over SEM-type lines
Description: An FDA-approved small-molecule pharmacological compound (#L1300) and an anticancer compound for research (#L2000) were purchased from Selecckchem and a 10 mM solution was prepared in DMSO. A total of 1,345 compounds were tested the cell viability of the seven EMT gastric cancer cell lines.
Cells cultured for cell-based drug assay were inoculated into a 96-well white optical plate (Corning) at 5×10^3 cells per well. After 24 hours after inoculation, a 2.5 MJT (primary screen) or a half-log 12-serial diluent (secondary screen) of the pharmacological compound contained in DMSO is added to the cells with a robot using a BioMek FXp liquid processor (Beckman) to add to the cells at 50 mM. The final drug concentration in the 5 ns range and the DMSO specification control (0.5%) were calculated. The cells were then further incubated at 37° C. in a 5% CO2 incubator for 72 hours prior to measuring cell viability using the extra-GLO assay kit (Promega). The luminescent properties were measured after 15 min incubation at room temperature using a plate stacker equipped with a plate stacker. The normalized viability for the DMSO-based control was measured to generate a cell line-specific 12-point dose-response curve for each pharmacological compound, and then the area under the curve (AUC) was calculated using a trapezoidal method.

[31] = tested on: non-SEM-type gastric cancer cell line; experiment: Cell viability drug screen, AUC summary over non-SEM-type lines; details: in the non-SEM-type gastric cancer cell line

In the case of C[C@@H]1O[C@@H](O[C@H]2C[C@@H](O)[C@]3(CO)[C@H]4[C@H](O)C[C@]5(C)[C@@H](C6=CC(=O)OC6)CC[C@]5(O)[C@@H]4CC[C@]3(O)C2)[C@H](O)[C@H](O)[C@H]1O [Oubain, Ouabain], the “area under the viability curve (AUC), normalized” value (from here on “area … normalized”) [1] is reported as −0.4351, the “area … normalized” value [2] is reported as 0.3093 and the “area … normalized” value [3] is reported as 4.783. The “area … normalized” value [4] was −1.223, the “area … normalized” value [5] was −0.5183 and the “area … normalized” value [6] was −0.3665. The “area … normalized” value [7] was −0.9472, the “area … normalized” value [8] was 0.3874 and the “area … normalized” value [9] was 0.2365. The “area … normalized” value [10] was −0.2417, the “area … normalized” value [11] was 1.567 and the “area … normalized” value [12] was 0.9192. For the same compound, the “area … normalized” value [13] was 0.1113, the “area … normalized” value [14] was −1.414 and the “area … normalized” value [15] was 2.229. The “area … normalized” value [16] was −0.7374, the “area … normalized” value [17] was 0.9873 and the “area … normalized” value [18] was −0.4741. The “area … normalized” value [19] was 0.2009, the “area … normalized” value [20] was −2.03 and the “area … normalized” value [21] was 2.702. For the same compound, the “area … normalized” value [22] was 0, the “area … normalized” value [23] was 1.054 and the “area … normalized” value [24] was −1.026. The “area … normalized” value [25] was 5.038, the “area … normalized” value [26] was −0.3494 and the “area … normalized” value [27] was −0.6785. The “area … normalized” value [28] was 4.209, the “area … normalized” value [29] was −0.3889 and the “normalized viability AUC” value [30] was “negative”. The AUC value [31] was “high”.

For Nc1ccc(-c2ccc3ncc4ccc(=O)n(-c5cccc(C(F)(F)F)c5)c4c3c2)cn1 [Torin, Torin 2], the “area … normalized” value [1] was −1.701, the “area … normalized” value [2] was −0.7581 and the “area … normalized” value [3] was 2.66. The “area … normalized” value [4] was −1.574, the “area … normalized” value [5] was 0.8861 and the “area … normalized” value [6] was 0.6704. For the same compound, the “area … normalized” value [7] was −0.1868, the “area … normalized” value [8] was 1.614 and the “area … normalized” value [9] was −1.598. For the same compound, the “area … normalized” value [10] was 0, the “area … normalized” value [11] was 1.584 and the “area … normalized” value [12] was 0.3078. The “area … normalized” value [13] was −0.1127, the “area … normalized” value [14] was −2.722 and the “area … normalized” value [15] was 0.9803. The “area … normalized” value [16] was −0.787, the “area … normalized” value [17] was −0.557 and the “area … normalized” value [18] was 1.392. For the same compound, the “area … normalized” value [19] was −0.4964, the “area … normalized” value [20] was −0.505 and the “area … normalized” value [21] was 0.4104. For the same compound, the “area … normalized” value [22] was 0.3965, the “area … normalized” value [23] was 0.3739 and the “area … normalized” value [24] was 0.4391. For the same compound, the “area … normalized” value [25] was 3.841, the “area … normalized” value [26] was −2.299 and the “area … normalized” value [27] was −0.06527. For the same compound, the “area … normalized” value [28] was 1.399, the “area … normalized” value [29] was −1.526 and the “normalized viability AUC” value [30] was “negative”. The AUC value [31] was “high”.
